# Assay results from patent US20200323954A1, “METHODS AND COMPOSITIONS FOR REDUCING GUT ISCHEMIA/REPERFUSION-INDUCED INJURY” (PanTheryx, Inc., priority 2019, published 2020).
# Entries after “also recorded” stand apart in the source; their conditions may differ.
# Columns and labels:
# [1] = system: polarised Caco-2 monolayers; experiment: Transepithelial electrical resistance (TEER) after H/R; type: cell-based, human
# Experimental: (§1) Hypoxia (Ischemia)/Normoxia (Reperfusion) (H/R) protocols for in vitro studies: For all experiments AGS, Caco-2 and RIE1 cells were set up in plates as described in specific methods. Cells were used at 70-80% confluence for cell injury/death assessment and as confluent monolayers for permeability studies. To induce “ischemia”, cells were placed in a hypoxic incubator (2% 02) for specified time and to mimic reperfusion, cells were placed back in a normoxic (21% 02) incubator for specified time. All treatments were duplicated in a second set of identical plates under normoxic conditions throughout the same test period as controls. To determine optimum conditions for the in vitro studies, pilot studies were performed.
# The effect of […] PSTI pre-treatment on transepithelial permeability induced by 1 hour of hypoxia followed by 24 hours of normoxia was examined using Caco-2, human polarizing colonic adenocarcinoma cells utilizing two different previously published methods according to Davison et al., 2016, Am J Nutr 2016; 104:526-536. One method determined change in transepithelial electrical resistance (TEER) and the other method analyzed the passage of horseradish peroxidase (HRP) across the epithelial layer. HRP (type II) is a non-digestible macromolecular protein (MW=44 kD) and has previously been used as a tracer in evaluation of epithelial permeability. Each monolayer had TEER and HRP permeability assessed at baseline, at the end of 1 h incubation in an hypoxic (ischemic) chamber and at the end of a 24 h reoxygenation (reperfusion) period. Measurements were taken in triplicate from 4 wells per treatment. Results are expressed as mean+/−SEM.
# [2] = system: AGS cells; experiment: Lactate dehydrogenase (LDH) cell damage assay after H/R; type: cell-based, human
# Experimental: as §1
# Lactate dehydrogenase (LDH) assay: Cell damage was assessed using the activity of LDH released into the cell culture medium. LDH is a cytosolic enzyme present in many different cell types. Plasma membrane damage releases LDH into the cell culture media. At the end of the H/R period, supernatant was collected from all wells and LDH activity determined using a Pierce LDH Cytotoxicity Assay Kit (Thermo Fisher Scientific, Hemel Hempstead, UK) following manufacturer's instructions. Results are expressed as LDH activity and presented as mean+/−SEM of six wells.
# Example 1A: Dose response study: To examine the effect of PSTI on H/R-induced cell injury in vitro, cells were set up in 96 well plates and pre-incubated in SFM containing glucose, with or without 5, 10 or 15 μg/ml PSTI for 1 hour (i.e. PSTI pre-treatment). These concentrations of PSTI were chosen based on previous studies examining cell migration (Marchbank et al., 2007, Am J Pathol 171(5):1462-73). The medium was replaced with SFM without glucose and placed in the hypoxia incubator for 4 hours. […]
# Example 1B: Efficacy of PSTI given pre-, during- or post-hypoxic period. […] Cell Viability (MTT assay) and cell damage (LDH assay) were assessed. […] Cell Viability (MTT assay) and cell damage (LDH assay) were assessed.
# [3] = system: renal tissue; experiment: Gut I/R model, renal tissue; details: kidney, I/R + PSTI 20 μg/kg ip, mean ± SEM
# [4] = system: NSAID-induced apoptosis; details: cited from earlier work
# [5] = system: lipopolysaccharide-stimulated dendritic cells; details: lipopolysaccharide-stimulated dendritic cells in vitro; cited from earlier work
# [6] = system: Caco-2 cells; experiment: Apoptotic and protective pathways after H/R in Caco-2 cells; type: cell-based, human
# Experimental: as §1
# Cleared cell lysates from I/R experiments in Caco-2 cells were assessed for levels of the apoptotic molecules Caspase 3 (FIG. 5A), Caspase 9 (FIG. 5I), Baxα (FIG. 5B) and Bcl2 (FIG. 5C). HIF1α (FIG. 5Δ), VEGF (FIG. 5E), hSP70 (FIG. 5F), ICAM1 (FIG. 5G) and the tight junction molecules ZO1 (FIG. 5H) and Claudin1 (FIG. 5J) levels were also analysed.
# [7] = system: DSS-induced colitis; details: rats, PSTI administration; cited from earlier work
# [8] = Caco-2, 1 h or 4 h hypoxia + 24 h normoxia, PSTI 1 h before, vs H/R without PSTI
# [9] = normoxic, any of the cell lines (data not shown)
substance,measurement,setting,value
pancreatic secretory trypsin inhibitor (DSLGREAKCYNELNGCTKIYDPVCGTDGNTYPNECVLCFENRKRQTSILIQKSGPC; listed as Homo sapiens) [PSTI],reduction of the fall in TEER caused by H/R,"[1]; Caco-2, 1 h hypoxia + 24 h normoxia, PSTI pre-treatment",about 50%
same,TEER under normoxic conditions,"[1]; Caco-2, normoxia",no effect on TEER or HRP permeation; also recorded: no effect on transepithelial resistance (TEER)
same,"H/R-induced change in TEER permeability, medium alone vs PSTI",[1]; PSTI added to the medium prior to I/R,significantly greater increases in permeability compared to those that had PSTI added
same,truncation of the damaging effect of hypoxia-normoxia on epithelial integrity,"[1]; TEER and HRP permeation, polarized monolayers",about 65%
same,reduction of the rise in LDH,"[2]; AGS, 4 h hypoxia + 24 h reperfusion, PSTI 10 μg/ml 1 h before hypoxia",37%±2%
same,effect on cell damage (LDH activity) after H/R vs serum free medium,[2]; PSTI added before H/R,significantly decreased cell damage
same,LDH of cells not exposed to H/R,"[2]; normoxia, PSTI 10 microgram per ml",no change in viability or LDH; also recorded: no change in % LDH levels
same,Baxα,[3],5.61 ± 0.63 pg/μg total protein
same,Bcl2,[3],66.37 ± 4.89 pg/μg total protein
same,Caspase 3 activity,[3],0.069 ± 0.019 Change in absorbance
same,Caspase 9 activity,[3],0.053 ± 0.010 Change in absorbance
same,Claudin 1,[3],0.154 ± 0.016 pg/μg total protein
same,MDA,[3],0.47 ± 0.047 nmol/μg of protein
same,ZO1,[3],0.151 ± 0.008 pg/μg total protein
same,hSP70,[3],36.6 ± 2.96 pg/μg total protein
same,NSAID-induced apoptosis,[4],reduces NSAID-induced apoptosis
same,cytokine release of TNFα and IL-12,[5],reduced cytokine release of TNFα and IL-12
same,further increase in HIF1α above the 42% increase induced by H/R,"[6]; 4 h hypoxia+24 h reoxygenation, cells pre-treated with PSTI (FIG. 5D)",11%
same,further increase in VEGF above the 34% increase caused by H/R,"[6]; 4 h hypoxia+24 h reoxygenation, co-presence of PSTI (FIG. 5E)",15%
same,increase in hSP70 after H/R with PSTI,"[6]; 4 h hypoxia+24 h reoxygenation, H/R alone about 63% (FIG. 5F)",about 80%
same,Baxα activity,[6]; [8],significantly truncated; also recorded: significantly decreased Baxα activity
same,Bcl2 activity,[6]; [8],this effect was truncated; also recorded: significantly attenuated reduction in Bcl2 activity
same,Caspase 3 activity,[6]; [8],significantly decreased Caspase 3 activity
same,Caspase 9 activity,[6]; [8],significantly decreased Caspase 9 activity
same,Claudin1 activity,[6]; [8],significantly attenuated reduction in Claudin1 activity
same,HIF1α activity,[6]; [8],significantly increased HIF1α activity
same,ICAM1 activity,[6]; [8],not influenced by the presence of PSTI; also recorded: did not significantly affect ICAM1 activity
same,VEGF activity,[6]; [8],significantly increased VEGF activity
same,ZO1 activity,[6]; [8],significantly attenuated reduction in ZO1 activity
same,hSP70 activity,[6]; [8],significantly increased hSP70 activity
same,truncation of the H/R-induced fall in ZO1 and Claudin1,"[6]; after 4 hours of hypoxia (FIG. 5H, 5J)",about 50%
same,"Caspase 3, 9, Baxα or Bcl2 under normoxic conditions",[6]; [9],"no effect on Caspase 3, 9, Baxα or Bcl2"
same,HIF1α or VEGF under normoxic conditions,[6]; [9],no effect on HIF1α or VEGF
same,ICAM1 levels under normoxic conditions,"[6]; normoxic, any of the cell lines tested (data not shown)",no effect on ICAM1 levels
same,DSS-induced colitis,[7],reduces NSAID-induced gastric injury and DSS-induced colitis
